Patent publication US12187752B2, “Solid forms and combination compositions comprising a beta-lactamase inhibitor and uses thereof” (priority 2017, dated 2025)
Where two headings read alike, the source gives them in different places. Blank lines part the entries; values can stand above or below the compound they belong to.

Legend:
[1] = Dynamic vapor sorption analysis; format: physicochemical; conditions: 25° C.
Method: Differences in hygroscopicity (moisture uptake) of the various forms of a solid material provided a measure of their relative stability at increasing relative humidity. Moisture sorption isotherms of small samples were obtained using a DVS-1 system from Surface Measurement Systems (London, UK); this instrument is suitable for use with as little as a few milligrams of sample, with an accuracy of 0.1 μg. The following humidity profile was applied: The relative humidity was cycled from 45% to 95% (sorption), back to 0% (desorption) and to 45%, at a constant temperature of 25° C. […] Weight equilibration per step was set with a minimum holding time of 1 hour. At the end of the DVS experiments, the recovered solid material was measured by HT-XRPD. Compound 1-dihydrochloride monohydrate was analyzed by dynamic vapor sorption (FIG. 6). The material was subjected to an isothermal desorption/sorption profile starting at 45%-95%-0%-45% relative humidity levels (step 5% at low relative humidity (RH)) at 25° C. The temperature was maintained constant at approximately 25° C. for the duration of the experiment. […] It can be seen that the mass uptake is rather small and that at high humidity level Compound 1-dihydrochloride remained as Form 1. This is confirmed by the mass stability and the VH-XRPD experiment conducted (see FIG. 7). […]

[2] = Physical stability of Compound 1-dihydrochloride at four temperature/RH conditions; format: physicochemical; conditions: four temperature/RH conditions, 4 weeks
Method: A physical stability study of Compound 1-dihydrochloride (mixture of Form 1 and Form 2) was conducted. A solid sample of Compound 1-dihydrochloride was incubated under four relative humidity and temperature conditions: 5° C./ambient RH, 25° C./60% RH, 30° C./65% RH and 40° C./75% RH. At regular intervals, the compound was analyzed by HR-XRPD and TGMS. […] The water content is in line with the monohydrate nature of Compound 1-dihydrochloride Form 1. The TGMS analyses recorded for the 2 weeks and 1-month incubation is also along the 3.8% of water (1 molecule of water per molecule of API).

[3] = Aqueous solubility as a function of pH (phosphate buffers, HPLC-UV); format: physicochemical; conditions: aqueous buffer, thermodynamic from solid; for solubility at 4 h: read-out: Conc. (mg/ml) 4 hours; for solubility thermodynamic at 24 h: read-out: Conc. (mg/ml) 24 hours
Method: A known amount of Compound 1 was weighed directly into 5 ml vials and 1 ml of each phosphate buffer was added; the solutions obtained were kept at controlled temperature (25° C.) and magnetically stirred up to 24 hours. Aliquots of obtained suspensions or solutions were centrifuged (14000 rpm 10 minutes) and withdrawn at two predefined time points (4 hours and 24 hours) appropriately diluted and analyzed by HPLC-UV using the analytical method parameters summarized in the Table 9.

DSC analysis of Form 1 = format: physicochemical; conditions: DSC trace
Method: Melting properties were obtained from DSC thermograms, recorded with a heat flux DSC822e instrument (Mettler-Toledo GmbH, Switzerland). The DSC822e was calibrated for temperature and enthalpy with a small piece of indium (melting point at 156.6 C; ΔHf=28.45 J·g−1). Samples were sealed in standard 40 μl aluminum pans, pin-holed and heated in the DSC from 25° C. to 300° C., at a heating rate of 10° C. min-1. Dry N2 gas, at a flow rate of 50 ml min−1 was used to purge the DSC equipment during measurement.
This event corresponds to the onset of dehydration of the monohydrate. This dehydration process is followed by the decomposition of the compound at about 290° C. signaled by a large endothermic event. It is concluded from this experiment that Form 1 is stable to elevated temperature, up to approximately 50° C.

[4] = Human pharmacokinetic and PK/PD target attainment estimates; format: in vivo
Text: (§1) The results from in vitro and in vivo nonclinical PK/PD studies, the human PK data collected in the Phase 1 Study, and human plasma binding data were used to determine human therapeutic doses required for PK/PD target attainment.

[5] = In vitro human serum protein binding; format: in vitro ADME; conditions: human
Text: as §1

human serum protein = experiment: In vitro human serum protein binding; format: in vitro ADME
Text: as §1

[6] = Stability of aqueous solutions of combination formulation at pH 5.0; format: physicochemical; conditions: pH 5.0 at 25° C., 24 hours
[7] = Polymorph and hydrate screen: physical stability of solid forms (AAC, drying); format: physicochemical; conditions: 40° C. and 75% RH for 2 days
Method: The solids obtained from the various crystallization experiments were analyzed by High Throughput XRPD (HT-XRPD). If relevant, the mother liquors were allowed to evaporate completely, and the remaining solids were analyzed by HT-XRPD. Subsequently, all solids were exposed to accelerated aging conditions for 48 hours at 40° C. and 75% RH (AAC).
From the polymorph screen, four novel diffractograms were identified in addition to the two known forms of Compound 1-dihydrochloride, Form 1 and Form 2. Form 1 was the most abundant solid form found in this polymorph screen. The novel diffractograms were designated Forms 3, 4, 5 and 6. All these forms were found with low frequency and were poorly crystalline. […] The HT-XRPD patterns of the new Forms 3, 4, 5 and 6 are shown in FIG. 12, FIG. 13, FIG. 14, and FIG. 15, respectively.
After completion of the equilibration time, the remaining solids were analyzed by HT-XRPD dry under ambient conditions and dried under vacuum. The mother liquors were analyzed by Karl Fisher titration for water content determination. […] The solutions from these experiments were evaporated under vacuum (200 mBar) and the obtained dried solids analyzed by HT-XRPD. All the solids were then exposed to 40° C. and 75% RH for two days.

[8] = Variable humidity XRPD analysis; format: physicochemical; conditions: VH-XRPD, sorption; dihydrochloride
Method: To confirm the hypothesis of a solid form change between 40% and 0% relative humidity levels a variable humidity XRPD (VH-XRPD) analysis was performed. The sample was subjected to a humidity profile of 45-75-20-15-10-30-35-45% relative humidity levels at 30° C. At each step, two diffractograms were recorded. The first diffractogram was recorded when the target humidity was reached and the second after the sample had equilibrated for 1 hour at each humidity level. […] The most intense peaks of Form 1 (dihydrochloride monohydrate) are in the range between 9.5 and 24.5° 2θ.
The measured RH level and the kind of ongoing RH variation step (sorption or desorption) is found on the right hand side. […] Upon desorption, the material was converted between 20% and 15% relative humidity to Form 2, the anhydrous form. Upon sorption, Form 2 converted back to Form 1 between 30% and 35% relative humidity.

Mass uptake on exposure to increasing relative humidity ([1]; DVS sorption 45% RH to 95%): rather small
Mass loss on desorption ([1]; DVS, exposure to 10, 5, and 0% RH, transformation to Form 2): approximately 4%
Physical stability and hygroscopicity under the tested conditions [2]: physically stable and non-hygroscopic
solubility at 4 h ([3]; Phosphate Buffer pH 4, pH (4 h) 3.9, 25° C.): > 143 mg/mL
solubility thermodynamic at 24 h ([3]; Phosphate Buffer pH 4, pH (24 h) 3.9, 25° C.): 133 mg/mL
solubility at 4 h ([3]; Phosphate Buffer pH 5, pH (4 h) 4.9, 25° C.): > 135 mg/mL
solubility thermodynamic at 24 h ([3]; Phosphate Buffer pH 5, pH (24 h) 4.9, 25° C.): 107 mg/mL
solubility at 4 h ([3]; Phosphate Buffer pH 6, pH (4 h) 6.2, 25° C.): > 135 mg/mL
solubility thermodynamic at 24 h ([3]; Phosphate Buffer pH 6, pH (24 h) 6.2, 25° C.): 102 mg/mL
solubility at 4 h ([3]; Phosphate Buffer pH 7, pH (4 h) 7.1, 25° C.): > 133 mg/mL
solubility thermodynamic at 24 h ([3]; Phosphate Buffer pH 7, pH (24 h) 7.0, 25° C.): 87.8 mg/mL
solubility at 4 h ([3]; Phosphate Buffer pH 8, pH (4 h) 8.1, 25° C.): > 127 mg/mL
solubility thermodynamic at 24 h ([3]; Phosphate Buffer pH 8, pH (24 h) 8.1, 25° C.): 68.3 mg/mL
solubility at 4 h ([3]; Phosphate Buffer pH 9, pH (4 h) 8.7, 25° C.): > 109 mg/mL
solubility thermodynamic at 24 h ([3]; Phosphate Buffer pH 9, pH (24 h) 8.9, 25° C.): 61.4 mg/mL
Temperature up to which the form is stable (onset of dehydration) (DSC analysis of Form 1): approximately 50 °C
SMILES: Cl.Cl.NCCN[C@H]1CC[C@H](CC(=O)N[C@H]2Cc3cccc(C(=O)O)c3OB2O)CC1 [Form 1, (R)-3-(2-(trans-4-(2-aminoethylamino)cyclohexyl)acetamido)-2-hydroxy-3,4-dihydro-2H-benzo[e][1,2]oxaborinine-8-carboxylic acid dihydrochloride]

Total AUC0-24 ([4]; Dose Level 250 (q8 hr)): 123 µg·h/mL
fAUC0-24 ([4]; Dose Level 250 (q8 hr)): 77 µg·h/mL
Total AUC0-24 ([4]; Dose Level 500 (q8 hr)): 248 µg·h/mL
fAUC0-24 ([4]; Dose Level 500 (q8 hr)): 156 µg·h/mL
fraction unbound [5]: 0.63
free fraction (human serum protein): 63%
% present, Compound 1 [6]: 100%
Physical stability upon exposure to AAC [7]: Stable
SMILES: NCCN[C@H]1CC[C@H](CC(=O)N[C@H]2Cc3cccc(C(=O)O)c3OB2O)CC1 [Compound 1, (R)-3-(2-(trans-4-(2-aminoethylamino)cyclohexyl)acetamido)-2-hydroxy-3,4-dihydro-2H-benzo[e][1,2]oxaborinine-8-carboxylic acid]

Relative humidity at which Form 2 converts to Form 1 [8]: 25-35 % RH
SMILES: Cl.Cl.NCCN[C@H]1CC[C@H](CC(=O)N[C@H]2Cc3cccc(C(=O)O)c3OB2O)CC1 [Form 2, (R)-3-(2-(trans-4-(2-aminoethylamino)cyclohexyl)acetamido)-2-hydroxy-3,4-dihydro-2H-benzo[e][1,2]oxaborinine-8-carboxylic acid dihydrochloride]
